Measurements reported in US9845310B2 (priority 2015, dated 2017).

How the values were obtained:
[1] = biological target: human AT1R receptor expressed in the CHO cell line (Homo sapiens (Human), UniProt P30556); conditions: different concentrations of AngII with fixed concentration of pyr apelin-13; human AT1R expressed alone in CHO cells
Method: The function of the inositol phosphate accumulation (IP1) was measured by Time-resolved fluorescence resonance energy (TR-FRET) at 620 nm and 665 nm respectively.

heart failure rat model [2] = conditions: captopril alone, acute settings, heart failure rats in vivo
heart failure rat model [3] = format: in vivo; conditions: ARB losartan together with APJ agonist
Method: Male Lewis rats (Charles River, USA) at 2-3 months of age were used for the study. […] APJ agonists were administered dose dependently acutely for a period of 30 min.

[4] = biological target: human APJ and the AT1R receptor (Homo sapiens (Human), UniProt P30556+P35414); experiment: IP1 TR-FRET assay of AngII response with or without APJ agonists in double stable CHO-K1 APJ/AT1R cells; format: cell-based; conditions: in the presence of AngII; losartan added
Method: Single and double stable recombinant cell lines were generated for human APJ and the AT1R receptor in CHO K1 cells tagged either with FLAG or hemagglutinin (HA) tag. Briefly, the CHO-K1 APJ/AT1R cells were seeded in culture medium of DMEM-F12 and 10% FBS at a density of 15 k/well in a 96 well plate overnight. The next day, the culture medium was replaced with medium containing no serum for 4 hours. The compound AngII at a range of concentrations (1 pM-10 μM) with or without different concentrations of APJ agonists were diluted in stimulation buffer and added to the cell plate. The plate was sealed and incubated for 1 hour. This was followed by addition of IP-d2 conjugate followed by europium cryptate antibody conjugate into the wells. The plate was sealed, followed with incubation for 2 hours at room temperature. Time-resolved fluorescence resonance energy (TR-FRET) at 620 nm and 665 nm was measured after 2 hours with an Envision reader. The signal ratios and delta F were calculated and the amount of IP1 produced was inversely proportional to the TR-FRET ratio, 665/620 nm.

[5] = tested on: isolated perfused rat hearts; experiment: Ex vivo isolated perfused rat heart (Langendorff) assay, load independent inotropic and lusitropic effects; conditions: ARB losartan together with APJ agonist

human APJ and the AT1R receptor, sequence (P35414 whole entry, looked up, the tested form may be a part): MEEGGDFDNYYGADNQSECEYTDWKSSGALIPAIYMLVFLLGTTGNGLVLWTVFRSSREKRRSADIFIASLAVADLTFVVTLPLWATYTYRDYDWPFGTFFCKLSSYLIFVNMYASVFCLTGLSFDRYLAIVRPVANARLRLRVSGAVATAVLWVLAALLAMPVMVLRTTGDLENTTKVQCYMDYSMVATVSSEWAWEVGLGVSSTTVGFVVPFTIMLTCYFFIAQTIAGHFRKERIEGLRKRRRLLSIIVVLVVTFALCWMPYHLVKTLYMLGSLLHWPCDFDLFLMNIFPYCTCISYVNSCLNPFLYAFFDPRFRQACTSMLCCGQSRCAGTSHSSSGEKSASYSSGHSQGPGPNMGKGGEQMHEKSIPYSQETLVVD
human APJ and the AT1R receptor, sequence (P30556 whole entry, looked up, the tested form may be a part): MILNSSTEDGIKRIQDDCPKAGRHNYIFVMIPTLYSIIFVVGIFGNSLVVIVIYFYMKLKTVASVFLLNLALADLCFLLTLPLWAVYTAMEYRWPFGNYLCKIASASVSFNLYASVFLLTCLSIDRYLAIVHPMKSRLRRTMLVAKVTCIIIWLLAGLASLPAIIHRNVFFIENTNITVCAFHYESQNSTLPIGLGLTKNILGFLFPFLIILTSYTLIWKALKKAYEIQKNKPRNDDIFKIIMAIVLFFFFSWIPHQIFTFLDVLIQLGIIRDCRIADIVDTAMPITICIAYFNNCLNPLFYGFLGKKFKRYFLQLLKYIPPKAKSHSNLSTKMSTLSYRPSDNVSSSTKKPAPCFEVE
human AT1R receptor expressed in the CHO cell line, sequence (P30556 whole entry): as the sequence (P30556 whole entry, looked up, the tested form may be a part) above

pyr apelin-13 was tested, and the “positive cooperativity (IP1 accumulation)” value [1] was “no positive cooperativity observed”.
In the case of C[C@H](CS)C(=O)N1CCC[C@H]1C(=O)O [Captopril, captopril], the “contractility or ejection fraction” value (heart failure rat model [2]) is reported as “does not show a marked improvement”.
For CCCCc1nc(Cl)c(CO)n1Cc1ccc(-c2ccccc2-c2nn[nH]n2)cc1 [losartan], the “APJ receptor signaling on blocking AT1R, in vivo studies” value (heart failure rat model [3]) was “synergistic effects”, the “effect on the positive cooperativity induced by APJ small molecule agonists” value [4] was “relieved this cooperativity” and the “APJ receptor signaling on blocking AT1R, ex-vivo studies” value [5] was “synergistic effects”.
